In patent US20130252988A1, “COMPOSITIONS AND METHODS FOR TREATING MYELOFIBROSIS” (TARGEGEN, INC., priority 2010, published 2013):
“Also recorded” adds a separate entry of the source. Counter-ions that a name gives are not always drawn. Like-named read-outs stand apart in the source and are kept apart here. Marks after values point to notes of the source that are not given here.

Test system: subjects with myelofibrosis
Settings: for Abdominal pain Severity Grade 1-2, subjects n (%) / Abdominal pain Severity Grade 3-4, subjects n (%) / Alanine aminotransferase increased Severity Grade 1-2, subjects n (%) / Alanine aminotransferase increased Severity Grade 3-4, subjects n (%) / Anorexia Severity Grade 1-2, subjects n (%) / Anorexia Severity Grade 3-4, subjects n (%) / Aspartate aminotransferase increased Severity Grade 1-2, subjects n (%) / Aspartate aminotransferase increased Severity Grade 3-4, subjects n (%) / Blood alkaline phosphatase increased Severity Grade 1-2, subjects n (%) / Blood alkaline phosphatase increased Severity Grade 3-4, subjects n (%) / Blood creatinine increased Severity Grade 1-2, subjects n (%) / Blood creatinine increased Severity Grade 3-4, subjects n (%) / Diarrhea Severity Grade 1-2, subjects n (%) / Diarrhea Severity Grade 3-4, subjects n (%) / Dry skin Severity Grade 1-2, subjects n (%) / Dry skin Severity Grade 3-4, subjects n (%) / Edema peripheral Severity Grade 1-2, subjects n (%) / Edema peripheral Severity Grade 3-4, subjects n (%) / Hyperlipasemia Severity Grade 1-2, subjects n (%) / Hyperlipasemia Severity Grade 3-4, subjects n (%) / Hypocalcemia Severity Grade 1-2, subjects n (%) / Hypocalcemia Severity Grade 3-4, subjects n (%) / Nausea Severity Grade 1-2, subjects n (%) / Nausea Severity Grade 3-4, subjects n (%) / Skin exfoliation Severity Grade 1-2, subjects n (%) / Skin exfoliation Severity Grade 3-4, subjects n (%) / Vomiting Severity Grade 1-2, subjects n (%) / Vomiting Severity Grade 3-4, subjects n (%): Table 9: AE at least possibly related to TG101348; for Neutropenia Severity Grade 1-2, subjects n (%) / Neutropenia Severity Grade 3-4, subjects n (%) / Thrombocytopenia Severity Grade 1-2, subjects n (%) / Thrombocytopenia Severity Grade 3-4, subjects n (%) / Anemia Severity Grade 1-2, subjects n (%) / Anemia Severity Grade 3-4, subjects n (%): Table 10: at least possibly related
[1] = Table 5: treatment-emergent non-hematologic laboratory finding, MTD subjects (N = 40)
[2] = All Subjects, not transfusion dependent at study entry (n = 37)
[3] = MTD Cohort, not transfusion dependent at study entry (n = 24)
[4] = overall, at least possibly related
[5] = subject 106-024, 800/680 mg/day, onset day 87, stopped temporarily, Recovered/resolved

Cc1cnc(Nc2ccc(OCCN3CCCC3)cc2)nc1Nc1cccc(S(=O)(=O)NC(C)(C)C)c1 [TG101348, N-tert-butyl-3-[(5-methyl-2-{[4-(2-pyrrolidin-1-ylethoxy)phenyl]amino}pyrimidin-4-yl)amino]benzenesulfonamide dihydrochloride monohydrate]
Hyperkalemia Grade 4, subjects n (%) [1]: 1 (3%) | Hyperlipasemia Grade 2, subjects n (%) [1]: 4 (10%) | Hyperlipasemia Grade 3, subjects n (%) [1]: 3 (8%) | Hyperlipasemia Grade 4, subjects n (%) [1]: 2 (5%) | Hypocalcemia Grade 2, subjects n (%) [1]: 8 (20%) | Hypocalcemia Grade 3, subjects n (%) [1]: 3 (8%) | Hypocalcemia Grade 4, subjects n (%) [1]: 0 | Abdominal pain Severity Grade 1-2, subjects n (%) (All Subjects (n = 59)): 6 (10.2%) | Abdominal pain Severity Grade 3-4, subjects n (%) (All Subjects (n = 59)): 0 | Alanine aminotransferase increased Severity Grade 1-2, subjects n (%) (All Subjects (n = 59)): 11 (18.6%) | Alanine aminotransferase increased Severity Grade 3-4, subjects n (%) (All Subjects (n = 59)): 4 (6.8%) | Anorexia Severity Grade 1-2, subjects n (%) (All Subjects (n = 59)): 8 (13.6%) | Anorexia Severity Grade 3-4, subjects n (%) (All Subjects (n = 59)): 0 | Aspartate aminotransferase increased Severity Grade 1-2, subjects n (%) (All Subjects (n = 59)): 15 (25.4%) | Aspartate aminotransferase increased Severity Grade 3-4, subjects n (%) (All Subjects (n = 59)): 1 (1.7%) | Blood alkaline phosphatase increased Severity Grade 1-2, subjects n (%) (All Subjects (n = 59)): 10 (16.9%) | Blood alkaline phosphatase increased Severity Grade 3-4, subjects n (%) (All Subjects (n = 59)): 0 | Blood creatinine increased Severity Grade 1-2, subjects n (%) (All Subjects (n = 59)): 14 (23.7%) | Blood creatinine increased Severity Grade 3-4, subjects n (%) (All Subjects (n = 59)): 0 | Diarrhea Severity Grade 1-2, subjects n (%) (All Subjects (n = 59)): 32 (54.2%) | Diarrhea Severity Grade 3-4, subjects n (%) (All Subjects (n = 59)): 6 (10.2%) | Dry skin Severity Grade 1-2, subjects n (%) (All Subjects (n = 59)): 6 (10.2%) | Dry skin Severity Grade 3-4, subjects n (%) (All Subjects (n = 59)): 0 | Edema peripheral Severity Grade 1-2, subjects n (%) (All Subjects (n = 59)): 6 (10.2%) | Edema peripheral Severity Grade 3-4, subjects n (%) (All Subjects (n = 59)): 0 | Hyperlipasemia Severity Grade 1-2, subjects n (%) (All Subjects (n = 59)): 10 (16.9%) | Hyperlipasemia Severity Grade 3-4, subjects n (%) (All Subjects (n = 59)): 6 (10.2%) | Hypocalcemia Severity Grade 1-2, subjects n (%) (All Subjects (n = 59)): 7 (11.9%) | Hypocalcemia Severity Grade 3-4, subjects n (%) (All Subjects (n = 59)): 1 (1.7%) | Nausea Severity Grade 1-2, subjects n (%) (All Subjects (n = 59)): 39 (66.1%) | Nausea Severity Grade 3-4, subjects n (%) (All Subjects (n = 59)): 2 (3.4%) | Skin exfoliation Severity Grade 1-2, subjects n (%) (All Subjects (n = 59)): 8 (13.6%) | Skin exfoliation Severity Grade 3-4, subjects n (%) (All Subjects (n = 59)): 0 | Vomiting Severity Grade 1-2, subjects n (%) (All Subjects (n = 59)): 32 (54.2%) | Vomiting Severity Grade 3-4, subjects n (%) (All Subjects (n = 59)): 2 (3.4%) | Abdominal pain Severity Grade 1-2, subjects n (%) (MTD Cohort (n = 40)): 4 (10.0%) | Abdominal pain Severity Grade 3-4, subjects n (%) (MTD Cohort (n = 40)): 0 | Alanine aminotransferase increased Severity Grade 1-2, subjects n (%) (MTD Cohort (n = 40)): 9 (22.5%) | Alanine aminotransferase increased Severity Grade 3-4, subjects n (%) (MTD Cohort (n = 40)): 3 (7.5%) | Anorexia Severity Grade 1-2, subjects n (%) (MTD Cohort (n = 40)): 6 (15.0%) | Anorexia Severity Grade 3-4, subjects n (%) (MTD Cohort (n = 40)): 0 | Aspartate aminotransferase increased Severity Grade 1-2, subjects n (%) (MTD Cohort (n = 40)): 13 (32.5%) | Aspartate aminotransferase increased Severity Grade 3-4, subjects n (%) (MTD Cohort (n = 40)): 1 (2.5%) | Blood alkaline phosphatase increased Severity Grade 1-2, subjects n (%) (MTD Cohort (n = 40)): 9 (22.5%) | Blood alkaline phosphatase increased Severity Grade 3-4, subjects n (%) (MTD Cohort (n = 40)): 0 | Blood creatinine increased Severity Grade 1-2, subjects n (%) (MTD Cohort (n = 40)): 11 (27.5%) | Blood creatinine increased Severity Grade 3-4, subjects n (%) (MTD Cohort (n = 40)): 0 | Diarrhea Severity Grade 1-2, subjects n (%) (MTD Cohort (n = 40)): 25 (62.5%) | Diarrhea Severity Grade 3-4, subjects n (%) (MTD Cohort (n = 40)): 5 (12.5%) | Dry skin Severity Grade 1-2, subjects n (%) (MTD Cohort (n = 40)): 6 (15%) | Dry skin Severity Grade 3-4, subjects n (%) (MTD Cohort (n = 40)): 0 | Edema peripheral Severity Grade 1-2, subjects n (%) (MTD Cohort (n = 40)): 4 (10.0%) | Edema peripheral Severity Grade 3-4, subjects n (%) (MTD Cohort (n = 40)): 0 | Hyperlipasemia Severity Grade 1-2, subjects n (%) (MTD Cohort (n = 40)): 9 (22.5%) | Hyperlipasemia Severity Grade 3-4, subjects n (%) (MTD Cohort (n = 40)): 6 (15.0%) | Hypocalcemia Severity Grade 1-2, subjects n (%) (MTD Cohort (n = 40)): 6 (15.0%) | Hypocalcemia Severity Grade 3-4, subjects n (%) (MTD Cohort (n = 40)): 1 (2.5%) | Nausea Severity Grade 1-2, subjects n (%) (MTD Cohort (n = 40)): 31 (77.5%) | Nausea Severity Grade 3-4, subjects n (%) (MTD Cohort (n = 40)): 2 (5.0%) | Skin exfoliation Severity Grade 1-2, subjects n (%) (MTD Cohort (n = 40)): 8 (20.0%) | Skin exfoliation Severity Grade 3-4, subjects n (%) (MTD Cohort (n = 40)): 0 | Vomiting Severity Grade 1-2, subjects n (%) (MTD Cohort (n = 40)): 27 (67.5%) | Vomiting Severity Grade 3-4, subjects n (%) (MTD Cohort (n = 40)): 1 (2.5%) | Neutropenia Severity Grade 1-2, subjects n (%) (All Subjects (n = 59)): 2 (3.4%) | Neutropenia Severity Grade 3-4, subjects n (%) (All Subjects (n = 59)): 6 (10.2%) | Thrombocytopenia Severity Grade 1-2, subjects n (%) (All Subjects (n = 59)): 10 (17.0%) | Thrombocytopenia Severity Grade 3-4, subjects n (%) (All Subjects (n = 59)): 14 (23.7%) | Anemia Severity Grade 1-2, subjects n (%) [2]: 3 (8.1%) | Anemia Severity Grade 3-4, subjects n (%) [2]: 13 (35.1%) | Neutropenia Severity Grade 1-2, subjects n (%) (MTD Cohort (n = 40)): 2 (5.0%) | Neutropenia Severity Grade 3-4, subjects n (%) (MTD Cohort (n = 40)): 4 (10.0%) | Thrombocytopenia Severity Grade 1-2, subjects n (%) (MTD Cohort (n = 40)): 8 (20.0%) | Thrombocytopenia Severity Grade 3-4, subjects n (%) (MTD Cohort (n = 40)): 11 (27.5%) | Anemia Severity Grade 1-2, subjects n (%) [3]: 2 (8.3%) | Anemia Severity Grade 3-4, subjects n (%) [3]: 13 (54.2%) | Grade 3/4 neutropenia considered related to TG101348, subjects (all subjects): 10% | Grade 3/4 thrombocytopenia considered related to TG101348, subjects (all subjects): 24% | Dose-limiting toxicity (DLT) (at 800 mg/day, dihydrochloride monohydrate): asymptomatic grade 3 or 4 amylasemia/lipasemia that was reversible; also recorded: asymptomatic grade 3 or 4 hyperamylasemia (with or without hyperlipasemia) that was reversible | Safety findings with continued dosing beyond 6 cycles (at data cutoff, extension study): no unique safety findings have emerged | Cytokine rebound upon discontinuation of TG101348 (discontinued without prior dose reduction or tapering, dihydrochloride monohydrate): absence of immediate adverse cytokine-rebound phenomenon; also recorded: did not experience “cytokine rebound” | Discontinuation because of adverse events during the extension study, number of subjects (following a total of 24 to 46 weeks on therapy): 3 | Subjects with disease progression (hepatosplenomegaly/ascites, accelerated myelofibrosis, leukemic transformation): Three | Emergence of transfusion requirement, subjects (initiated treatment at 680 mg/day): 72% | Emergence of transfusion requirement, subjects (initiated treatment at 240-520 mg/day): 33% | Grade 3/4 anemia considered related to TG101348, subjects (of 37 subjects not transfusion dependent at baseline): 35% | Maximum tolerated dose (MTD) (oral once daily, dose escalation 30 to 800 mg/day): 680 mg/day | Grades 3/4 asymptomatic increase in ALT, subjects (overall): 7% | Grades 3/4 asymptomatic increase in AST, subjects (overall): 2% | Grades 3/4 asymptomatic increase in serum lipase, subjects (overall): 10% | Grades 3/4 increase in alkaline phosphatase, subjects (overall): 0% | Grades 3/4 increase in creatinine, subjects (overall): 0% | Grade 4 nausea, diarrhea and vomiting (overall and MTD cohort): no Grade 4 events | Grade 3 diarrhea, subjects [4]: 10% | Grade 3 nausea, subjects [4]: 3% | Grade 3 vomiting, subjects [4]: 3% | Tolerability (patients with myelofibrosis, dihydrochloride monohydrate): generally well tolerated | Serious adverse event Neutropenia: CTCAE Severity Grade (subject 101-047, 680/680 mg/day, onset day 52, stopped temporarily, Recovered/resolved): 2 | Serious adverse event Depression: CTCAE Severity Grade (subject 104-015, 360/520 mg/day, onset day 256, permanently discontinued, Not recovered/not resolved, died (suicide) approximately 12 weeks after discontinuation): 3* | Serious adverse event Hyperlipasemia: CTCAE Severity Grade (subject 105-013, 240/0 mg/day, onset day 356, action none, Recovered/resolved): 4 | Serious adverse event Thrombocytopenia: CTCAE Severity Grade (subject 105-013, 240/360 mg/day, onset day 247, permanently discontinued, Not recovered/not resolved): 4 | Serious adverse event Thrombocytopenia: CTCAE Severity Grade (subject 105-013, starting dose/dose at event 240/360 mg/day, onset day 215, action none, Recovered/resolved): 4 | Serious adverse event Gallbladder pain: CTCAE Severity Grade (subject 105-056, 680/520 mg/day, onset day 95, stopped temporarily, Recovered/resolved with sequelae): 3 | Serious adverse event Cerebrovascular accident: CTCAE Severity Grade (subject 105-056, 680/680 mg/day, onset day 22, stopped temporarily, Recovered/resolved): 4 | Serious adverse event Cardiac arrest: CTCAE Severity Grade (subject 105-059, 680/360 mg/day, onset day 42, permanently discontinued, Fatal): 5 | Serious adverse event Hyperlipasemia: CTCAE Severity Grade (subject 105-059, 680/520 mg/day, onset day 28, stopped temporarily, Recovered/resolved): 3 | Serious adverse event Hyperlipasemia: CTCAE Severity Grade (subject 105-059, 680/680 mg/day, onset day 8, stopped temporarily, Recovered/resolved): 3 | Serious adverse event Dehydration: CTCAE Severity Grade (subject 106-024, 800/400 mg/day, onset day 474, action none, Recovered/resolved): 3 | Serious adverse event Tumor lysis syndrome: CTCAE Severity Grade (subject 106-024, 800/440 mg/day, onset day 366, stopped temporarily, Recovered/resolved): 3 | Serious adverse event Dehydration: CTCAE Severity Grade [5]: 2 | Serious adverse event Diarrhea: CTCAE Severity Grade [5]: 3 | Serious adverse event Nausea: CTCAE Severity Grade [5]: 2 | Serious adverse event Vomiting: CTCAE Severity Grade [5]: 2 | Serious adverse event Pleuritic pain: CTCAE Severity Grade (subject 106-033, 680/680 mg/day, onset day 8, stopped temporarily, Recovered/resolved): 2 | Serious adverse event Dehydration: CTCAE Severity Grade (subject 106-045, 680/440 mg/day, onset day 170, stopped temporarily, Recovered/resolved): 3
